Measured values taken from PubChem BioAssay (NCI).
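96-well plates; 48 h exposure; 5 concentrations. Endpoints by linear interpolation between flanking doses. Not reached: highest tested concentration assigned. GI50: concentration for 50% inhibition of growth. TGI marks complete inhibition of growth.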

Assays:
Assay in all cases: growth of human tumour cells (NCI), 48 h
786-0 renal = test system: 786-0 renal
A498 renal = test system: A498 renal
A549 NSCLC = test system: A549 NSCLC
ACHN renal = test system: ACHN renal
BT-549 breast = test system: BT-549 breast
CAKI-1 renal = test system: CAKI-1 renal
CCRF-CEM leukemia = test system: CCRF-CEM leukemia
COLO 205 colon = test system: COLO 205 colon
DU-145 prostate = test system: DU-145 prostate
EKVX NSCLC = test system: EKVX NSCLC
HCC-2998 colon = test system: HCC-2998 colon
HCT-116 colon = test system: HCT-116 colon
HCT-15 colon = test system: HCT-15 colon
HL-60(TB) leukemia = test system: HL-60(TB) leukemia
HOP-62 NSCLC = test system: HOP-62 NSCLC
HS 578T breast = test system: HS 578T breast
HT29 colon = test system: HT29 colon
IGROV1 ovarian = test system: IGROV1 ovarian
K-562 leukemia = test system: K-562 leukemia
KM12 colon = test system: KM12 colon
LOX IMVI melanoma = test system: LOX IMVI melanoma
M14 melanoma = test system: M14 melanoma
MALME-3M melanoma = test system: MALME-3M melanoma
MCF7 breast = test system: MCF7 breast
MDA-MB-231 breast = test system: MDA-MB-231 breast
MDA-MB-435 = test system: MDA-MB-435
MOLT-4 leukemia = test system: MOLT-4 leukemia
NCI-H226 lung = test system: NCI-H226 lung
NCI-H23 lung = test system: NCI-H23 lung
NCI-H460 lung = test system: NCI-H460 lung
NCI-H522 lung = test system: NCI-H522 lung
NCI/ADR-RES ovarian = test system: NCI/ADR-RES ovarian
OVCAR-3 ovarian = test system: OVCAR-3 ovarian
OVCAR-4 ovarian = test system: OVCAR-4 ovarian
OVCAR-5 ovarian = test system: OVCAR-5 ovarian
OVCAR-8 ovarian = test system: OVCAR-8 ovarian
PC-3 prostate = test system: PC-3 prostate
RXF 393 renal = test system: RXF 393 renal
SF-268 CNS = test system: SF-268 CNS
SF-295 CNS = test system: SF-295 CNS
SF-539 CNS = test system: SF-539 CNS
SK-MEL-28 melanoma = test system: SK-MEL-28 melanoma
SK-MEL-5 melanoma = test system: SK-MEL-5 melanoma
SK-OV-3 ovarian = test system: SK-OV-3 ovarian
SN12C renal = test system: SN12C renal
SNB-19 CNS = test system: SNB-19 CNS
SW-620 colon = test system: SW-620 colon
T-47D breast = test system: T-47D breast
TK-10 renal = test system: TK-10 renal
U251 CNS = test system: U251 CNS
UACC-257 melanoma = test system: UACC-257 melanoma
UACC-62 melanoma = test system: UACC-62 melanoma
UO-31 renal = test system: UO-31 renal
HOP-92 NSCLC = test system: HOP-92 NSCLC
RPMI-8226 leukemia = test system: RPMI-8226 leukemia
SK-MEL-2 melanoma = test system: SK-MEL-2 melanoma
SNB-75 CNS = test system: SNB-75 CNS
SR leukemia = test system: SR leukemia

For `COc1cccc(NC(=O)c2ccc(NC3=C(Cl)C(=O)N(Cc4ccccc4)C3=O)cc2)c1`, the GI50 (786-0 renal) was 18.3 µM, the TGI (786-0 renal) was 33.9 µM and the GI50 (A498 renal) was 22.2 µM. It also gave a TGI (A498 renal) of 48.9 µM, a GI50 (A549 NSCLC) of 13.6 µM and a TGI (A549 NSCLC) of 38 µM. For the same compound, the GI50 (ACHN renal) was 6.22 µM, the TGI (ACHN renal) was 19 µM and the GI50 (BT-549 breast) was 13.8 µM. For the same compound, the TGI (BT-549 breast) was 33.8 µM, the GI50 (CAKI-1 renal) was 15.3 µM and the TGI (CAKI-1 renal) was 30.9 µM. The GI50 (CCRF-CEM leukemia) was 1670 nM, the TGI (CCRF-CEM leukemia) was 4.35 µM and the GI50 (COLO 205 colon) was 23.7 µM. The TGI (COLO 205 colon) was greater than 100 µM, the GI50 (DU-145 prostate) was 19 µM and the TGI (DU-145 prostate) was 38.6 µM. It also gave a GI50 (EKVX NSCLC) of 24.4 µM, a TGI (EKVX NSCLC) of 49.4 µM and a GI50 (HCC-2998 colon) of 17 µM. The TGI (HCC-2998 colon) was 30.6 µM, the GI50 (HCT-116 colon) was 15 µM and the TGI (HCT-116 colon) was 28.3 µM. The GI50 (HCT-15 colon) was 1400 nM, the TGI (HCT-15 colon) was 2710 nM and the GI50 (HL-60(TB) leukemia) was 11.9 µM. For the same compound, the TGI (HL-60(TB) leukemia) was 29 µM, the GI50 (HOP-62 NSCLC) was 19.1 µM and the TGI (HOP-62 NSCLC) was 34.8 µM. For the same compound, the GI50 (HS 578T breast) was 11.1 µM, the TGI (HS 578T breast) was 30.9 µM and the GI50 (HT29 colon) was 5.74 µM. It also gave a TGI (HT29 colon) of 17.4 µM, a GI50 (IGROV1 ovarian) of 13.3 µM and a TGI (IGROV1 ovarian) of 28.7 µM. The GI50 (K-562 leukemia) was 18.9 µM, the TGI (K-562 leukemia) was 47.2 µM and the GI50 (KM12 colon) was 16.9 µM. It also gave a TGI (KM12 colon) of 40.3 µM, a GI50 (LOX IMVI melanoma) of 2710 nM and a TGI (LOX IMVI melanoma) of 9.11 µM. The GI50 (M14 melanoma) was 17.3 µM, the TGI (M14 melanoma) was 31.7 µM and the GI50 (MALME-3M melanoma) was 16 µM. For the same compound, the TGI (MALME-3M melanoma) was 42.1 µM, the GI50 (MCF7 breast) was 3.9 µM and the TGI (MCF7 breast) was 17.8 µM. The GI50 (MDA-MB-231 breast) was 16.7 µM, the TGI (MDA-MB-231 breast) was 36.1 µM and the GI50 (MDA-MB-435) was 10.6 µM. For the same compound, the TGI (MDA-MB-435) was 41.4 µM, the GI50 (MOLT-4 leukemia) was 2820 nM and the TGI (MOLT-4 leukemia) was 16.2 µM. It also gave a GI50 (NCI-H226 lung) of 14.8 µM, a TGI (NCI-H226 lung) of 28.8 µM and a GI50 (NCI-H23 lung) of 15.3 µM. For the same compound, the TGI (NCI-H23 lung) was 28.6 µM, the GI50 (NCI-H460 lung) was 12.3 µM and the TGI (NCI-H460 lung) was 30.4 µM. For the same compound, the GI50 (NCI-H522 lung) was 2490 nM, the TGI (NCI-H522 lung) was 8.87 µM and the GI50 (NCI/ADR-RES ovarian) was 16.3 µM. For the same compound, the TGI (NCI/ADR-RES ovarian) was 29.8 µM, the GI50 (OVCAR-3 ovarian) was 3.29 µM and the TGI (OVCAR-3 ovarian) was 15.3 µM. For the same compound, the GI50 (OVCAR-4 ovarian) was 22 µM, the TGI (OVCAR-4 ovarian) was greater than 100 µM and the GI50 (OVCAR-5 ovarian) was 27.5 µM. The TGI (OVCAR-5 ovarian) was 65.7 µM, the GI50 (OVCAR-8 ovarian) was 4.17 µM and the TGI (OVCAR-8 ovarian) was 16.5 µM. It also gave a GI50 (PC-3 prostate) of 13.1 µM, a TGI (PC-3 prostate) of 28.5 µM and a GI50 (RXF 393 renal) of 2090 nM. For the same compound, the TGI (RXF 393 renal) was 14.9 µM, the GI50 (SF-268 CNS) was 17.5 µM and the TGI (SF-268 CNS) was 37.4 µM. For the same compound, the GI50 (SF-295 CNS) was 10.5 µM, the TGI (SF-295 CNS) was 28.8 µM and the GI50 (SF-539 CNS) was 17.3 µM. It also gave a TGI (SF-539 CNS) of 31 µM, a GI50 (SK-MEL-28 melanoma) of 11.5 µM and a TGI (SK-MEL-28 melanoma) of 28 µM. It also gave a GI50 (SK-MEL-5 melanoma) of 14 µM, a TGI (SK-MEL-5 melanoma) of 26.9 µM and a GI50 (SK-OV-3 ovarian) of 30.5 µM. It also gave a TGI (SK-OV-3 ovarian) of 85.4 µM, a GI50 (SN12C renal) of 17.6 µM and a TGI (SN12C renal) of 37.1 µM. For the same compound, the GI50 (SNB-19 CNS) was 19.1 µM, the TGI (SNB-19 CNS) was 60.1 µM and the GI50 (SW-620 colon) was 10.3 µM. For the same compound, the TGI (SW-620 colon) was 25.7 µM, the GI50 (T-47D breast) was 21.5 µM and the TGI (T-47D breast) was greater than 100 µM. It also gave a GI50 (TK-10 renal) of 20.3 µM, a TGI (TK-10 renal) of 55 µM and a GI50 (U251 CNS) of 7.12 µM. The TGI (U251 CNS) was 19.9 µM, the GI50 (UACC-257 melanoma) was 16.2 µM and the TGI (UACC-257 melanoma) was 38.5 µM. It also gave a GI50 (UACC-62 melanoma) of 15.4 µM, a TGI (UACC-62 melanoma) of 28.8 µM and a GI50 (UO-31 renal) of 18.2 µM. It also gave a TGI (UO-31 renal) of 62.6 µM.
Compound `ClCCc1ccccc1CC1=NCCc2ccccc21` has a TGI (786-0 renal) greater than 100 µM, a TGI (A498 renal) greater than 100 µM and a TGI (A549 NSCLC) greater than 100 µM. The TGI (ACHN renal) was greater than 100 µM, the TGI (BT-549 breast) was 97.9 µM and the TGI (CAKI-1 renal) was 92.4 µM. It also gave a TGI (CCRF-CEM leukemia) greater than 100 µM, a TGI (COLO 205 colon) of 63.5 µM and a TGI (DU-145 prostate) greater than 100 µM. The TGI (EKVX NSCLC) was greater than 100 µM, the TGI (HCC-2998 colon) was 62.5 µM and the TGI (HCT-116 colon) was greater than 100 µM. It also gave a TGI (HCT-15 colon) greater than 100000 nM, a TGI (HL-60(TB) leukemia) greater than 100 µM and a TGI (HOP-62 NSCLC) greater than 100 µM. The TGI (HOP-92 NSCLC) was greater than 100 µM, the TGI (HS 578T breast) was greater than 100 µM and the TGI (HT29 colon) was 46.3 µM. It also gave a TGI (IGROV1 ovarian) greater than 100 µM, a TGI (K-562 leukemia) greater than 100 µM and a TGI (KM12 colon) greater than 100 µM. It also gave a TGI (LOX IMVI melanoma) greater than 100 µM, a TGI (M14 melanoma) of 71.5 µM and a TGI (MCF7 breast) greater than 100 µM. It also gave a TGI (MDA-MB-231 breast) of 96.2 µM, a TGI (MDA-MB-435) greater than 100 µM and a TGI (MOLT-4 leukemia) greater than 100 µM. It also gave a TGI (NCI-H226 lung) greater than 100 µM, a TGI (NCI-H23 lung) of 74.5 µM and a TGI (NCI-H460 lung) of 62.7 µM. For the same compound, the TGI (NCI-H522 lung) was 44 µM, the TGI (NCI/ADR-RES ovarian) was 75.6 µM and the TGI (OVCAR-3 ovarian) was greater than 100 µM. For the same compound, the TGI (OVCAR-4 ovarian) was greater than 100 µM, the TGI (OVCAR-5 ovarian) was greater than 100 µM and the TGI (OVCAR-8 ovarian) was greater than 100 µM. For the same compound, the TGI (PC-3 prostate) was greater than 100 µM, the TGI (RPMI-8226 leukemia) was 45.9 µM and the TGI (RXF 393 renal) was 61.8 µM. For the same compound, the TGI (SF-268 CNS) was greater than 100 µM, the TGI (SF-295 CNS) was greater than 100 µM and the TGI (SF-539 CNS) was greater than 100 µM. The TGI (SK-MEL-2 melanoma) was 39.1 µM, the TGI (SK-MEL-28 melanoma) was greater than 100 µM and the TGI (SK-MEL-5 melanoma) was 47.9 µM. For the same compound, the TGI (SK-OV-3 ovarian) was greater than 100 µM, the TGI (SN12C renal) was greater than 100 µM and the TGI (SNB-19 CNS) was greater than 100 µM. The TGI (SNB-75 CNS) was 96.8 µM, the TGI (SR leukemia) was greater than 100 µM and the TGI (SW-620 colon) was greater than 100 µM. The TGI (T-47D breast) was greater than 100 µM, the TGI (TK-10 renal) was greater than 100 µM and the TGI (U251 CNS) was greater than 100 µM. It also gave a TGI (UACC-257 melanoma) greater than 100 µM, a TGI (UACC-62 melanoma) of 98.9 µM and a TGI (UO-31 renal) of 38.3 µM.
